{"source": "patent US8362070B2", "about": "“Application of puerarin in the preparation of P2X3 mediated drugs for pain/nervous system diseases” (Nanchang University, priority 2009, dated 2013)", "tested_on": "rats that suffer from neuropathic pain (chronic constriction injury of sciatic nerve)", "test": "Mechanical hyperalgesia (mechanical withdrawal threshold, Von Frey) in rats with neuropathic pain (CCI)", "format": "in vivo, rat", "procedure": "Male SD rats, 220-250 g were provided by the Department of Experimental Animals from the Medical College of Nanchang University. The rats were divided into five groups at random and 12 rats were included in each group. Experimental grouping: I (sham); II (puerarin); III (chronic constriction injuries, CCI); IV (CCI+puerarin); V (control); VI (CCI+Indo). The puerarin injection was dissolved in physiological saline and the concentration was 50 mg/mL. […]\nThiopental sodium was used to anesthetize the rats (30 mg/kg, intraperitoneal injection), and the skin in the outer side of right thighs of the rats was cut open under sterile conditions, and blunt dissection was carried out to isolate the sciatic nerves, then the sciatic nerves were slightly ligated with 4-0 chromicized catgut and four ligations were carried out in total, and an interval of about 1 mm was left between two knots. […] The rats were raised in separate cages after the operation, and mechanical withdrawal threshold and thermal withdrawal latency were determined before the operation (0 d) and 1, 3, 5, 7, 9, 11, 14 days after the operations respectively (Time for the determination is set at 10[…]00-14[…]100 everyday, and the room temperature was maintained at 22±0.5° C.). […]", "data": [{"smiles": "O=c1c(-c2ccc(O)cc2)coc2c([C@@H]3O[C@H](CO)[C@@H](O)[C@H](O)[C@H]3O)c(O)ccc12", "note": "[puerarin]", "values": [{"measurement": "mechanical withdrawal threshold (MWT) in comparison with group III (CCI)", "setting": "CCI rats + puerarin, seven days after ligation, p<0.01", "result": "significantly increased"}, {"measurement": "mechanical withdrawal threshold, difference among sham, puerarin alone and control", "setting": "puerarin alone, no CCI, p>0.05", "result": "not significant"}]}]}
